For orientation: melting point means the temperature, or range, at which the solid turns liquid. What is called IC50 is the concentration needed to halve the response being measured.

Molecules are shown by their SMILES. Where two headings read alike, the source gives them in different places.

These results are taken from article PMC4511007 (PLoS ONE, 2015).

Series [1] has as its system RV venom PLA2. Kind of series: Indirect haemolytic activity (RV venom PLA2 inhibition). It counts as biochemical, Vipera russelli. The following applies: 1 μg RV venom pre-incubated with compound 10 min at 37°C, NS: Not Significant.
The target in series [2] is VRV-PLA2-VIII (Daboia russelii, UniProt P59071). Kind of series: biochemical. More on the design: species or system Vipera russelli.
Sequence of VRV-PLA2-VIII (P59071 whole entry, looked up): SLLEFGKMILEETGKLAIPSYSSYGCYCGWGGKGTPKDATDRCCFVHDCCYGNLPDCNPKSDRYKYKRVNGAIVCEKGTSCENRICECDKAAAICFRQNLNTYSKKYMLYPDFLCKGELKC

`COc1cccc(-c2cccn3c(C(C)=O)c(C)nc23)c1F` [3i, 1-(8-(2-fluoro-3-methoxyphenyl)-2-methylimidazo[1,2-a]pyridin-3-yl)ethanone] displayed a melting point of 190 to 192 °C. Besides, the IC50 in series [1] came out at 123 µM. Moreover, half-maximal inhibition in series [2] (IC50) required 135 µM.
`CC(=O)c1c(C)nc2c(-c3cccc4ccccc34)cccn12` [3f, 1-(2-methyl-8-(naphthalen-1-yl)imidazo[1,2-a]pyridin-3-yl)ethanone]: the melting point was in the range of 179 to 182 °C. Further, the IC50 in series [1] was 14.3 µM. The same molecule yielded an IC50 in series [2] of 23.1 µM.
The molecule `CCC(CCc1cccn2c(C(C)=O)c(C)nc12)C(=O)NC1CCCC1` (centres unmarked) [3h, 4-(3-acetyl-2-methylimidazo[1,2-a]pyridin-8-yl)-N-cyclopentyl-2-ethylbutanamide] had a melting point of 117 to 119 °C. In series [1], the IC50 is 105 µM. In addition, the IC50 in series [2] turned out to be 114 µM.
Molecule `CC(=O)c1c(C)nc2c(-c3ccc(OCc4ccccc4)c(F)c3)cccn12` [3b, 1-(8-(4-(benzyloxy)-3-fluorophenyl)-2-methylimidazo[1,2-a]pyridin-3-yl)ethanone] registered a melting point of 154 to 156 °C. In series [1], the IC50 was above 500 µM. In series [2], this molecule returned an IC50 of 140 µM.
In the same order, the values of `CC(=O)c1c(C)nc2c(-c3ccc(Cl)c(C(F)(F)F)c3)cccn12` [3a, 1-(8-(4-chloro-3-(trifluoromethyl)phenyl)-2-methylimidazo[1,2-a]pyridin-3-yl)ethanone] are 141 to 143 °C, 110 µM and 155 µM.
In turn, `CCc1ccc(-c2cccn3c(C(C)=O)c(C)nc23)cc1` [3l, 1-(8-(4-ethylphenyl)-2-methylimidazo[1,2-a]pyridin-3-yl)ethanone] returned a melting point of 169 to 172 °C. Besides, in series [1], the IC50 was above 500 µM. The IC50 in series [2] amounted to 43.2 µM.
In turn, `CC(=O)c1c(C)nc2c(-c3ccc(C(F)(F)F)cc3)cccn12` [3k, 1-(2-methyl-8-(4-(trifluoromethyl)phenyl)imidazo[1,2-a]pyridin-3-yl)ethanone] returned a melting point of 121 to 123 °C. For the same molecule, the IC50 in series [1] was above 500 µM. The IC50 in series [2] (read-out: IC50 (μM) VRV-PLA2-VIII) is above 100 µM.
`CC(=O)c1c(C)nc2c(-c3ccccc3C)cccn12` [3j, 1-(2-methyl-8-(o-tolyl)imidazo[1,2-a]pyridin-3-yl)ethanone] showed a melting point of 157 to 159 °C. The IC50 in series [1] came to 166 µM. In series [2], this molecule displayed an IC50 of 189 µM.
`CC(=O)c1c(C)nc2c(-c3cccc(Cl)c3)cccn12` [3d, 1-(8-(3-chlorophenyl)-2-methylimidazo[1,2-a]pyridin-3-yl)ethanone] had a melting point of 114 to 116 °C. Also, the IC50 in series [1] came out at 59.1 µM. In series [2], this molecule registered an IC50 of 89.1 µM.
In the same order, the values of `COc1cccc(-c2cccn3c(C(C)=O)c(C)nc23)c1` [3e, 1-(8-(3-methoxyphenyl)-2-methylimidazo[1,2-a]pyridin-3-yl)ethanone] are 116 to 119 °C, 46.4 µM and 65.3 µM.
`CC(=O)c1c(C)nc2c(-c3ccccc3)cccn12` [3c, 1-(2-methyl-8-phenylimidazo[1,2-a]pyridin-3-yl)ethanone]: the melting point lay in the range of 160 to 162 °C. For the same molecule, the IC50 in series [1] came to 194 µM.
`CC(=O)c1c(C)nc2c(-c3ccc(Cl)cc3)cccn12` [3g, 1-(8-(4-chlorophenyl)-2-methylimidazo[1,2-a]pyridin-3-yl)ethanone] came in with a melting point of 111 to 114 °C. In series [1], the IC50 was found to be 219 µM. Besides, the IC50 in series [2] was 195 µM.
